Measurements reported in the supplement of paper PMC11061612.

Assays:
Experiment in all cases: Bliss excess, mean over the matrix (fraction); higher = more synergy
[1] = test system: HT55 (Colorectal Carcinoma)
Method in brief: (§1)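 Bliss excess equals the observed combination effect minus the expected value EA + EB − EA·EB, where EA and EB are the effects of each agent alone. Combination Emax is the second-highest inhibition within the matrix. Inhibition was scaled from CellTiter-Glo 2.0 luminescence, with 0 set by vehicle wells and 1 by blank wells, after 72 hours of two-drug dosing of cells plated in 1536-well plates.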

[2] = test system: huH-1 (Hepatocellular Carcinoma)
Method in brief: as §1

[3] = test system: 769-P (Kidney Carcinoma)
Method in brief: as §1

[4] = test system: CESS (Acute Myeloid Leukemia)
Method in brief: as §1

[5] = test system: MDA-MB-436 (Breast Carcinoma)
Method in brief: as §1

[6] = test system: AU565 (Breast Carcinoma)
Method in brief: as §1

[7] = test system: JVM-2 (B-Cell Non-Hodgkin's Lymphoma)
Method in brief: as §1

[8] = test system: NCI-H2087 (Lung Adenocarcinoma)
Method in brief: as §1

[9] = test system: 22RV1 (Prostate Carcinoma)
Method in brief: as §1

[10] = test system: A204 (Rhabdomyosarcoma)
Method in brief: as §1

[11] = test system: GCT (Other Solid Carcinomas)
Method in brief: as §1

[12] = test system: CGTH-W-1 (Thyroid Gland Carcinoma)
Method in brief: as §1

[13] = test system: A253 (Head and Neck Carcinoma)
Method in brief: as §1

[14] = test system: NCI-H716 (Colorectal Carcinoma)
Method in brief: as §1

[15] = test system: UACC-812 (Breast Carcinoma)
Method in brief: as §1

[16] = test system: A2780 (Ovarian Carcinoma)
Method in brief: as §1

[17] = test system: SW620 (Colorectal Carcinoma)
Method in brief: as §1

[18] = test system: NCI-H2228 (Lung Adenocarcinoma)
Method in brief: as §1

[19] = test system: LU-165 (Small Cell Lung Carcinoma)
Method in brief: as §1

[20] = test system: A101D (Melanoma)
Method in brief: as §1

SMILES	Bliss excess [1]	Bliss excess [2]	Bliss excess [3]	Bliss excess [4]	Bliss excess [5]	Bliss excess [6]	Bliss excess [7]	Bliss excess [8]	Bliss excess [9]	Bliss excess [10]	Bliss excess [11]	Bliss excess [12]	Bliss excess [13]	Bliss excess [14]	Bliss excess [15]	Bliss excess [16]	Bliss excess [17]	Bliss excess [18]	Bliss excess [19]	Bliss excess [20]
CC1(C)CCC(CN2CCN(c3ccc(C(=O)NS(=O)(=O)c4ccc(NCC5CCOCC5)c([N+](=O)[O-])c4)c(Oc4cnc5[nH]ccc5c4)c3)CC2)=C(c2ccc(Cl)cc2)C1 [Venetoclax] + COc1cc(Nc2ncc3c(n2)-c2ccc(Cl)cc2C(c2c(F)cccc2OC)=NC3)ccc1C(=O)O [Alisertib] (first compound max 1 µM, 7x7, partner max 10 µM)	0.0009	-0.02	0.0339	0.0268	-0.0299	0.106	0.0333	-0.0241	0.003	-0.0088	-0.0365	-0.0198	0.0091	-0.0203	-0.0157	-0.0602	-0.0335	-0.0413	0.027	0.077
CN(C)CCCOc1ccc(-c2ccc3ncc4c(c3c2)n(C2CCOCC2)c(=O)n4C)cn1 [AZD0156] + O=C(c1cc(Cc2n[nH]c(=O)c3ccccc23)ccc1F)N1CCN(C(=O)C2CC2)CC1 [Olaparib] (first compound max 3 µM, partner max 3 µM)	0.0254	-0.0726	-0.0148	0.075	-0.0232	0.0442	0.0457	-0.043	0.0313	-0.0255	0.0068	0.0361	0.0536	0.002	-0.113	0.198	0.0953	0.0272	0.0093	0.134
Cn1cnc2c(F)c(Nc3ccc(Br)cc3Cl)c(C(=O)NOCCO)cc21 [Selumetinib] + C=CCn1c(=O)c2cnc(Nc3ccc(N4CCN(C)CC4)cc3)nc2n1-c1cccc(C(C)(C)O)n1 [AZD1775] (first compound max 10 µM, partner max 1 µM)	-0.0422	-0.116	-0.0944	-0.0037	-0.0002	-0.0507	-0.071	0.0084	0.0454	-0.0511	-0.0074	-0.0427	-0.0181	-0.0992	-0.0425	-0.0352	-0.0198	-0.0613	-0.0589	-0.087
Cc1c2c(nn1C)CSCc1cc(n(C)n1)CSc1cc(c3ccccc3c1)OCCCc1c(C(=O)O)n(C)c3c-2c(Cl)ccc13 [AZD5991] + C[C@@H]1COCCN1C2=NC(=NC(=C2)C3(CC3)[S@](=N)(=O)C)C4=C5C=CNC5=NC=C4 [AZD6738] (first compound max 1 µM, 7x7, partner max 10 µM)	0.0901	-0.0302	-0.0333	0.066	-0.0031	0.0006	-0.0128	-0.0396	0.0449	0.0507	0.06	0.0117	0.0364	0.0138	0.0094	-0.0032	0.0191	-0.0302	0.0012	0.0342
C=CCn1c(=O)c2cnc(Nc3ccc(N4CCN(C)CC4)cc3)nc2n1-c1cccc(C(C)(C)O)n1 [AZD1775] + C1CN(CCC1(C(=O)N[C@@H](CCO)C2=CC=C(C=C2)Cl)N)C3=NC=NC4=C3C=CN4 [Capivasertib] (first compound max 3 µM, partner max 3 µM)	-0.125	-0.0242	-0.0475	-0.0359	0.0064	-0.0494	-0.0591	-0.0287	-0.0348	-0.0131	0.004	-0.0278	0.0248	-0.034	-0.0007	0.0361	-0.0402	-0.0181	-0.117	0.0152
CC1(C)CCC(CN2CCN(c3ccc(C(=O)NS(=O)(=O)c4ccc(NCC5CCOCC5)c([N+](=O)[O-])c4)c(Oc4cnc5[nH]ccc5c4)c3)CC2)=C(c2ccc(Cl)cc2)C1 [Venetoclax] + C=CCn1c(=O)c2cnc(Nc3ccc(N4CCN(C)CC4)cc3)nc2n1-c1cccc(C(C)(C)O)n1 [AZD1775] (first compound max 1 µM, partner max 1 µM)	-0.0016	-0.066	-0.0081	-0.0236	-0.0202	0.0756	0.0333	-0.0408	0.0156	-0.0433	-0.0339	-0.0114	0.0263	0.0214	-0.0681	0.0477	-0.0536	-0.0602	-0.0506	-0.0188
COc1nnc2ccc(N3CCC(c4ccc(OCCN5CCN(C)C(=O)[C@H]5C)cc4)CC3)nn12 [AZD5153] + C[C@@H]1COCCN1C2=NC(=NC(=C2)C3(CC3)[S@](=N)(=O)C)C4=C5C=CNC5=NC=C4 [AZD6738] (first compound max 1 µM, 7x7, partner max 10 µM)	0.0392	0.031	0.0196	-0.0554	-0.0104	0.009	-0.061	0.0404	-0.0019	0.042	0.029	0.0604	0.0315	-0.0312	0.0371	-0.0058	0.0276	-0.0179	-0.0048	-0.0186
COc1nnc2ccc(N3CCC(c4ccc(OCCN5CCN(C)C(=O)[C@H]5C)cc4)CC3)nn12 [AZD5153] + Cn1cnc2c(F)c(Nc3ccc(Br)cc3Cl)c(C(=O)NOCCO)cc21 [Selumetinib] (first compound max 1 µM, 7x7, partner max 10 µM)	0.0584	-0.0102	-0.0261	-0.0651	-0.0275	0.0278	0.0655	-0.0192	0.0239	-0.0838	-0.0506	-0.0059	0.0009	0.016	0.0089	-0.0118	-0.0083	-0.0535	-0.0494	-0.081
COc1cccc(OCCCN)c1-c1cc(Nc2cnc(C#N)cn2)n[nH]1 [Prexasertib] + O=C(c1cc(Cc2n[nH]c(=O)c3ccccc23)ccc1F)N1CCN(C(=O)C2CC2)CC1 [Olaparib] (first compound max 1 µM, 7x7, partner max 10 µM)	-0.0102	0.0434	-0.118	-0.0511	0.0035	-0.0097	0.0213	-0.11	-0.072	-0.0675	0.0068	-0.0511	-0.0617	-0.0673	-0.0395	-0.0298	-0.0457	-0.0834	-0.128	-0.0549
CCN(CCO)CCCOc1ccc2c(Nc3cc(CC(=O)Nc4cccc(F)c4)[nH]n3)ncnc2c1 [AZD2811] + C[C@@H]1COCCN1C2=NC(=NC(=C2)C3(CC3)[S@](=N)(=O)C)C4=C5C=CNC5=NC=C4 [AZD6738] (first compound max 1 µM, 7x7, partner max 10 µM)	-0.0227	-0.0294	-0.0107	-0.0259	-0.0469	-0.002	-0.0809	-0.0712	-0.103	-0.0492	-0.0318	-0.0461	-0.0471	-0.0765	-0.0303	-0.0619	-0.0451	-0.0184	-0.0637	-0.0414
COc1nnc2ccc(N3CCC(c4ccc(OCCN5CCN(C)C(=O)[C@H]5C)cc4)CC3)nn12 [AZD5153] + CC1(C)CCC(CN2CCN(c3ccc(C(=O)NS(=O)(=O)c4ccc(NCC5CCOCC5)c([N+](=O)[O-])c4)c(Oc4cnc5[nH]ccc5c4)c3)CC2)=C(c2ccc(Cl)cc2)C1 [Venetoclax] (first compound max 1 µM, 7x7, partner max 1 µM)	-0.0387	-0.0962	-0.0457	-0.0713	-0.0572	0.0002	-0.0081	-0.0427	-0.0308	-0.0383	-0.107	-0.0407	-0.0724	-0.0035	-0.0947	-0.0689	-0.0671	-0.0523	-0.0522	-0.0731
CC1(C)CCC(CN2CCN(c3ccc(C(=O)NS(=O)(=O)c4ccc(NCC5CCOCC5)c([N+](=O)[O-])c4)c(Oc4cnc5[nH]ccc5c4)c3)CC2)=C(c2ccc(Cl)cc2)C1 [Venetoclax] + C1CN(CCC1(C(=O)N[C@@H](CCO)C2=CC=C(C=C2)Cl)N)C3=NC=NC4=C3C=CN4 [Capivasertib] (first compound max 1 µM, 7x7, partner max 3 µM)	-0.0183	-0.0411	-0.0433	-0.0707	-0.0513	0.0463	-0.0118	-0.0553	-0.0475	-0.0358	-0.0401	-0.0532	-0.0084	-0.0595	-0.0212	-0.0223	-0.0511	-0.0537	-0.0268	-0.0652
